The values below come from patent publication US5939414A, “Benzodiazepine hydrazide derivatives as inhibitors of HIV integrase” (Merck & Co., Inc., priority 1997, dated 1999).

SMILES strings stand for the structures. pIC50: −log10 of the molar value.

Assay [1] addresses T1, HIV integrase (Human immunodeficiency virus type 1 group M subtype B, UniProt P04585).
T1 construct: HIV Integrase
Kind of assay: Inhibition of strand transfer by HIV integrase. The assay is classed as biochemical. The method, then:
Assay for Inhibition of Strand Transfer by HIV Integrase
Inhibition of strand transfer was conducted according to Hazuda, D. J. et al. Nucleic Acids Res., 22, 1121 (1994), hereby incorporated by reference for these purposes.

For assay [2], the target named is T2, HIV-1 integrase (Human immunodeficiency virus type 1 group M subtype B, UniProt P04585). Kind of assay: biochemical. The arrangement: HIV-1 integrase. The method, then: HIV Integrase Assay: Substrate Cleavage
An assay for trimming of 3' end of HIV long terminal repeat terminus by HIV-1 integrase was conducted according to LaFemina, E. R. et al., J. Virol. 10, 5624 (1991), herein incorporated by reference for these purposes. To assay inhibition of HIV integrase substrate cleavage, the reaction was conducted with inhibitor having various concentrations in the range of 0.1 to 100 μM.

The target in assay [3] is T2, HIV-1 integrase. Kind of assay: Assembly of HIV-1 integrase as catalytically active complex. The assay is classed as biochemical. The arrangement: HIV-1 Integrase. The method, then:
Assay for Assembly of HIV-1 Integrase as Catalytically Active Complex
Inhibition of assembly of HIV-1 Integrase was conducted according to Wolfe, A. L. et al., J. Virol. 70, 1424 (1996), herein incorporated by reference for these purposes.

One may read the pIC50 as the negative decadic logarithm of the IC50, by convention in mol/L.

As to `O=C(NNC1=Nc2ccccc2C(c2ccccc2)=NC1)c1cnccn1` [Compound VI], the pIC50 in assay [1] is 5.52 to 5.70; in assay [2] it was 5.70; in assay [3], 5.30.

For the compound `Cc1[nH]cnc1C(=O)NNC1=Nc2ccc(Br)cc2C(c2ccccc2Cl)=NC1` [Compound VII], the negative logarithm of the IC50 (pIC50) in assay [1] is 5.30; in assay [2], 5.70; in assay [3], 5.00.
